Laboratory results reported in article PMC10004634 (PLOS ONE, 2023).
Like-named read-outs stand apart in the source and are kept apart here.

Assays:
Assay in all cases: biochemical
Design in all cases: KINOMEscan scanMAX competition binding, DNA-tagged kinases, qPCR read-out, percent control at 300 nM
SYK = SYK (Homo sapiens, UniProt P43405)
IRAK1 = IRAK1 (Homo sapiens, UniProt P51617)
NEK2 = target: T1, NEK2 (Homo sapiens, UniProt P51955)
T1 sequence (P51955 1-445): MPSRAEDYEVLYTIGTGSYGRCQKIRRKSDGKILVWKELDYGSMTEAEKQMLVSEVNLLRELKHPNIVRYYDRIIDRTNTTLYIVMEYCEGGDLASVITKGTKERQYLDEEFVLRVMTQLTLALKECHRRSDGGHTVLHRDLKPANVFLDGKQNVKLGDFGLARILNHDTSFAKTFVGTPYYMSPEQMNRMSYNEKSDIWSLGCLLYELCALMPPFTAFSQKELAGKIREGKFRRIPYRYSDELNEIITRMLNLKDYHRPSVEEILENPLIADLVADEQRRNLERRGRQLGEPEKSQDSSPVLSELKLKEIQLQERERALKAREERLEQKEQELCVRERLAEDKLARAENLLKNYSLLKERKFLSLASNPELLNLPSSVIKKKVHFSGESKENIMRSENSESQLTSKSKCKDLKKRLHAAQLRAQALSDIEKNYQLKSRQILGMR

CSNK1A1L = target: T2, CSNK1A1L (Homo sapiens, UniProt Q8N752)
T2 sequence (Q8N752 1-337): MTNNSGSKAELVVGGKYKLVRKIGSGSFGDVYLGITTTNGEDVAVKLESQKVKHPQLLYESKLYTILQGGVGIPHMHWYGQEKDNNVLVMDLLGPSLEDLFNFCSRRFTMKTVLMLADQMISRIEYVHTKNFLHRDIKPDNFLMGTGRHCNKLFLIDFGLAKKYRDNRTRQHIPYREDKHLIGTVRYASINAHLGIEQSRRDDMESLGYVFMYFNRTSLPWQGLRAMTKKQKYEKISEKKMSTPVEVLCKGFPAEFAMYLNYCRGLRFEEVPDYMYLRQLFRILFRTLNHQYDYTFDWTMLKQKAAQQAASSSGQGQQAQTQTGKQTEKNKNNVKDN

SLK = SLK (Homo sapiens, UniProt Q9H2G2)
SLK, sequence (Q9H2G2 whole entry): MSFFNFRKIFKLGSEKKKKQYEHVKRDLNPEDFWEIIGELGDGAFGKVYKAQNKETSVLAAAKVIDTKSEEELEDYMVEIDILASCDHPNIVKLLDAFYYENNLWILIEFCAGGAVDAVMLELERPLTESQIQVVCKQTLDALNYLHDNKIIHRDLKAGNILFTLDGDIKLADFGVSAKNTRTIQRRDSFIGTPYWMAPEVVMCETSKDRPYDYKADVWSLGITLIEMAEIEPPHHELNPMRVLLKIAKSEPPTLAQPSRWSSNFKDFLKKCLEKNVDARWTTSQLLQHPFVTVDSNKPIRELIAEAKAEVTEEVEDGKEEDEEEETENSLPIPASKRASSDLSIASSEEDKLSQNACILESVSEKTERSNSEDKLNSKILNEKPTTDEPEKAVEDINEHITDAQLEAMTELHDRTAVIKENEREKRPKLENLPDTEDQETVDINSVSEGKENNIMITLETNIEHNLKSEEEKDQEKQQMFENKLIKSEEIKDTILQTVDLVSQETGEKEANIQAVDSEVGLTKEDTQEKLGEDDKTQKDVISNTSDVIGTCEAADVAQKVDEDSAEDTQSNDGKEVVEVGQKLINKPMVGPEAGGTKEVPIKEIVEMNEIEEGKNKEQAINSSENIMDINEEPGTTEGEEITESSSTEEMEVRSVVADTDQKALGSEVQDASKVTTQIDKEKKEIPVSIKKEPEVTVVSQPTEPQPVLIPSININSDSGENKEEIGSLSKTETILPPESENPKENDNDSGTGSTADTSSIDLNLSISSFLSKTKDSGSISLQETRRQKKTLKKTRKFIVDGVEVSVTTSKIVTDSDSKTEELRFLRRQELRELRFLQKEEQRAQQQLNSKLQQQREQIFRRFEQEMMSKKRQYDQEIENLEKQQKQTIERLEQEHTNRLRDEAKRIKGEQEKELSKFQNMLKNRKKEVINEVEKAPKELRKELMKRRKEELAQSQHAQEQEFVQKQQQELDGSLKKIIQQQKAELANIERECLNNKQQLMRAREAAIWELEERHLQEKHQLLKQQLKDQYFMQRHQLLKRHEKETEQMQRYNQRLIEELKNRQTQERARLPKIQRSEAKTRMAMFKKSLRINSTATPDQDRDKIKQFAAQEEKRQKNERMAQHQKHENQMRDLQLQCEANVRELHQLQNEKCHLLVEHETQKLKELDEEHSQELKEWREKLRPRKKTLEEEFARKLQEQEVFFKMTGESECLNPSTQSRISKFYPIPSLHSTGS

LZK = target: T3, LZK (Homo sapiens, UniProt O43283)
T3 construct: gene MAP3K13
T3 sequence (O43283 1-966): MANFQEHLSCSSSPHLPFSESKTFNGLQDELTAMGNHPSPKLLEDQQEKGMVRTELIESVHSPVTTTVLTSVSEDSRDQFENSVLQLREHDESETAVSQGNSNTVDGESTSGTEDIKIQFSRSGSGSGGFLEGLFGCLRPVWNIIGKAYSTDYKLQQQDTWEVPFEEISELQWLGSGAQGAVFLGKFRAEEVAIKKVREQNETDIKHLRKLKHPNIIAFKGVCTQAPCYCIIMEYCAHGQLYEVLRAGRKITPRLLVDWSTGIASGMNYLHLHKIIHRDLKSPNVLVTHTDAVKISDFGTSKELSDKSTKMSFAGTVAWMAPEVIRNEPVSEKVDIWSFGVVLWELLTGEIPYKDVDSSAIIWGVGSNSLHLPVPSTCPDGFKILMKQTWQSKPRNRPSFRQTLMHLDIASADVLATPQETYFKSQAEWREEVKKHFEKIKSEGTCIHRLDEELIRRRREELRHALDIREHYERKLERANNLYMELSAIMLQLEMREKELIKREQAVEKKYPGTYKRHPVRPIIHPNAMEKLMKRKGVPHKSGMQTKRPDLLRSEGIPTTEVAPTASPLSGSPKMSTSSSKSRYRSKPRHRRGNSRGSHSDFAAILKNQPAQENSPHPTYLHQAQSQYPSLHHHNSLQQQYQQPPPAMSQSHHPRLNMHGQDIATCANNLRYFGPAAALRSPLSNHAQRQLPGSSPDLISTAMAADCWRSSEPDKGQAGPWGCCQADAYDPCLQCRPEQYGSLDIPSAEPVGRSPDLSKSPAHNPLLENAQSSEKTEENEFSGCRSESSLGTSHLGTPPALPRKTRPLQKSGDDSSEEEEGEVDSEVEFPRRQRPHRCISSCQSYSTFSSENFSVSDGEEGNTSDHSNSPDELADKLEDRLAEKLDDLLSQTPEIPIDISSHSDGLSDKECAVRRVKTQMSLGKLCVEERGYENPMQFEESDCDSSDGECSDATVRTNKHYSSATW

SRMS = SRMS (Homo sapiens, UniProt Q9H3Y6)
KIT(V559D,T670I) = KIT(V559D,T670I) (Homo sapiens, UniProt P10721, T670I/V559D)
KIT(V559D,T670I), sequence (P10721 whole entry V559D/T670I): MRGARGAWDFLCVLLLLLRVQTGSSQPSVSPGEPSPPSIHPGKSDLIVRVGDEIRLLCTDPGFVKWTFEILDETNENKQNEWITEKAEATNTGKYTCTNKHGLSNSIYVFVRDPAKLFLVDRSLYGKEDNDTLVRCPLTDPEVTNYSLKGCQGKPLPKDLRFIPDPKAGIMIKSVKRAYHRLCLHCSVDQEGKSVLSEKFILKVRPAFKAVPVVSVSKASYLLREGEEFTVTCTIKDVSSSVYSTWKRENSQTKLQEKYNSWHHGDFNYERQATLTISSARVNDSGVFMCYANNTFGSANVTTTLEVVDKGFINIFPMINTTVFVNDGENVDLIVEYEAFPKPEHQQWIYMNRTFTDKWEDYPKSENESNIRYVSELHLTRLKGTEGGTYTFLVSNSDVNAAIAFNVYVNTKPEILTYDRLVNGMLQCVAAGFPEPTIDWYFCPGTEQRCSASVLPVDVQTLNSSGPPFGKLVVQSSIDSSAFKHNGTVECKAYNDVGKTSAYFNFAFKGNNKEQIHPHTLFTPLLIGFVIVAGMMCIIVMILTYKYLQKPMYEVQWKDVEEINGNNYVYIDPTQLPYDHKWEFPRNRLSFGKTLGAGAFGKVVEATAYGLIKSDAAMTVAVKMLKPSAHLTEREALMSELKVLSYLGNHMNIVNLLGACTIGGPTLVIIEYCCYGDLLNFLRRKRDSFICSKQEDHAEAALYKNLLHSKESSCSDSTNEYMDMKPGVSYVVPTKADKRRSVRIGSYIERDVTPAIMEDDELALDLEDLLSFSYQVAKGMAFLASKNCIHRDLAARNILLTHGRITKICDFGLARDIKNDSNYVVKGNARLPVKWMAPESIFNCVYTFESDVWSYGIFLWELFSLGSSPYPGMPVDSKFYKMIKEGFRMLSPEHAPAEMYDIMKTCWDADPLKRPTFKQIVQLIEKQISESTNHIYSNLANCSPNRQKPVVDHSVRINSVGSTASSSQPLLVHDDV

JNK1 = target: T4, JNK1 (Homo sapiens, UniProt P45983)
T4 construct: gene MAPK8
T4 sequence (P45983 whole entry): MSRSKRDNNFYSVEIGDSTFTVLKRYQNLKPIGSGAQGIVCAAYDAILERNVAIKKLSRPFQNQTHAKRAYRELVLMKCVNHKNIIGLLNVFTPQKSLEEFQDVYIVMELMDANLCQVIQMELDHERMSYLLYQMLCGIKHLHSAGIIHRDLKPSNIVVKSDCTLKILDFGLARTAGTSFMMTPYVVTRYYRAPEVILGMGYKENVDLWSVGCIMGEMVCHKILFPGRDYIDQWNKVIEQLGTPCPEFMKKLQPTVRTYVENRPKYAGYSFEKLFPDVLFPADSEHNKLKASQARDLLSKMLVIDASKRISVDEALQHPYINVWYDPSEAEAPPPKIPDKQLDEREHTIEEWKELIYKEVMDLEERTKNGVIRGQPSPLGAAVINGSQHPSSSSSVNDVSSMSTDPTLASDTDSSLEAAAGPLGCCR

ERN1 = ERN1 (Homo sapiens, UniProt O75460)
ERN1, sequence (O75460 whole entry): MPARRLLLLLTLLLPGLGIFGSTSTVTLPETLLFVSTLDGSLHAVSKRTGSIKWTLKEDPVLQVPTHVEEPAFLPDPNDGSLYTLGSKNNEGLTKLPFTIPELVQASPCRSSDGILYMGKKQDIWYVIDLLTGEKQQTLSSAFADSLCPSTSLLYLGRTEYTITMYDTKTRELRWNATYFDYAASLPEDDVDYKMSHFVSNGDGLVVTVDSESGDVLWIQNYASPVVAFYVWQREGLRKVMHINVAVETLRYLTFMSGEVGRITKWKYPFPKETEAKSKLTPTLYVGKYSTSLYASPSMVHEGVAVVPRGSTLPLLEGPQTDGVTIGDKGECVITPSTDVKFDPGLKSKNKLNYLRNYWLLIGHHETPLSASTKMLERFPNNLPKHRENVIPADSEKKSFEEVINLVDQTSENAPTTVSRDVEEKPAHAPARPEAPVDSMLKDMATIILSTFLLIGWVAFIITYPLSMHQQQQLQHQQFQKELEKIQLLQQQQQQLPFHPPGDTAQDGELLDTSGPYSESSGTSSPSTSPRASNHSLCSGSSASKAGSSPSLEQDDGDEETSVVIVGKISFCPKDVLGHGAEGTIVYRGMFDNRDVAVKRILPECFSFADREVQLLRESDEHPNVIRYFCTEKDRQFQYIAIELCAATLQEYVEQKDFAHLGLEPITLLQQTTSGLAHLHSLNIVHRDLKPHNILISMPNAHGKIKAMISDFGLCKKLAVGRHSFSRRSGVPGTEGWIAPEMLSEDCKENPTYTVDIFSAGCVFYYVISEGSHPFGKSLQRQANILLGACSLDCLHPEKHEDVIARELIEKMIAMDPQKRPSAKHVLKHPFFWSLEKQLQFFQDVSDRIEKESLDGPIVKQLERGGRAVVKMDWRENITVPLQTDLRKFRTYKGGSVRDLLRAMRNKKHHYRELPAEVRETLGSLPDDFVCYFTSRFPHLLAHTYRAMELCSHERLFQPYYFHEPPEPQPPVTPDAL

YANK2 = target: T5, YANK2 (Homo sapiens, UniProt Q9NY57)
T5 construct: gene STK32B
T5 sequence (Q9NY57 whole entry): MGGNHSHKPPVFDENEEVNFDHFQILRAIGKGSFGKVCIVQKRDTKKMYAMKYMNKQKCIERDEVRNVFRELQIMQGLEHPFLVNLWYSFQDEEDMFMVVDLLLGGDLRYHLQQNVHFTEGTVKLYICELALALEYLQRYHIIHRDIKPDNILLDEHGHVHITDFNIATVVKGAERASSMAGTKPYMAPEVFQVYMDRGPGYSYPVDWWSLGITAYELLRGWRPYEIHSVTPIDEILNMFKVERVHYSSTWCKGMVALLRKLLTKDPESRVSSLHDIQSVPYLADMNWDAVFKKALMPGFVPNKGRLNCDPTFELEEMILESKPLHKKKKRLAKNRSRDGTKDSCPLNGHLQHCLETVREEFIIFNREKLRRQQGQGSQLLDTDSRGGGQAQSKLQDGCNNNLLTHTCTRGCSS

[1] = read-out: Percent control / Acalabrutinib
[2] = read-out: Percent control / Ibrutinib
[3] = read-out: Percent control / Tirabrutinib
[4] = read-out: Percent control / Zanubrutinib

IRAK1, sequence (P51617 whole entry): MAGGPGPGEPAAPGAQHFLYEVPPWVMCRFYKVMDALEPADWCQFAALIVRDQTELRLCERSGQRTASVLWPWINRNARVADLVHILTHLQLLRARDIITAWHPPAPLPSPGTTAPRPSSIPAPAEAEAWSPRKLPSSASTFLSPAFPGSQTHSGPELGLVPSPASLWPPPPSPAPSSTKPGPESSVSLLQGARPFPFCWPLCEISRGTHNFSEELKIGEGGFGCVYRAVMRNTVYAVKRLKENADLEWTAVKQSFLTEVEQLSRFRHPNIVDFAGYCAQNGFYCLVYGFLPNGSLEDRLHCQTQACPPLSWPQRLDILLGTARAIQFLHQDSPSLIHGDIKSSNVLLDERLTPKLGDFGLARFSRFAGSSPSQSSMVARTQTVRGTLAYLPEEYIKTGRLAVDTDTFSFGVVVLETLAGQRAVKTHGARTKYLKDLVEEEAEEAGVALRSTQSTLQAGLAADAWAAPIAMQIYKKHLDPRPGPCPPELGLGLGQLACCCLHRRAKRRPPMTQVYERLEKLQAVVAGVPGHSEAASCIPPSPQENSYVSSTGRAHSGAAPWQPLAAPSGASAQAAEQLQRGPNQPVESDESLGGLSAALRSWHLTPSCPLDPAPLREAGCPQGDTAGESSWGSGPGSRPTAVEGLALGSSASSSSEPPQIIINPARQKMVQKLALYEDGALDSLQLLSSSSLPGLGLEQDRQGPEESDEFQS

CC#CC(=O)N1CCC[C@H]1c1nc(-c2ccc(C(=O)Nc3ccccn3)cc2)c2c(N)nccn12 [Acalabrutinib]
remaining binding at 0.3 µM (SYK; [1]): 89%
remaining binding at 0.3 µM (IRAK1; [1]): 90%
remaining binding at 0.3 µM (NEK2; [1]): 95%
remaining binding at 0.3 µM (CSNK1A1L; [1]): 84%
remaining binding at 0.3 µM (SLK; [1]): 88%
remaining binding at 0.3 µM (LZK; [1]): 85%
remaining binding at 0.3 µM (SRMS; [1]): 79%
remaining binding at 0.3 µM (KIT(V559D,T670I); [1]): 78%
remaining binding at 0.3 µM (JNK1; [1]): 93%
remaining binding at 0.3 µM (ERN1; [1]): 96%
remaining binding at 0.3 µM (YANK2; [1]): 89%

C=CC(=O)N1CCC[C@@H](n2nc(-c3ccc(Oc4ccccc4)cc3)c3c(N)ncnc32)C1 [Ibrutinib]
remaining binding at 0.3 µM (IRAK1; [2]): 89%
remaining binding at 0.3 µM (NEK2; [2]): 84%
remaining binding at 0.3 µM (CSNK1A1L; [2]): 93%
remaining binding at 0.3 µM (SLK; [2]): 92%
remaining binding at 0.3 µM (LZK; [2]): 79%
remaining binding at 0.3 µM (SRMS; [2]): 0.3%
remaining binding at 0.3 µM (JNK1; [2]): 96%
remaining binding at 0.3 µM (ERN1; [2]): 89%
remaining binding at 0.3 µM (YANK2; [2]): 76%

CC#CC(=O)N1CC[C@@H](n2c(=O)n(-c3ccc(Oc4ccccc4)cc3)c3c(N)ncnc32)C1 [Tirabrutinib]
remaining binding at 0.3 µM (SYK; [3]): 93%
remaining binding at 0.3 µM (NEK2; [3]): 93%
remaining binding at 0.3 µM (CSNK1A1L; [3]): 93%
remaining binding at 0.3 µM (SLK; [3]): 93%
remaining binding at 0.3 µM (LZK; [3]): 63%
remaining binding at 0.3 µM (SRMS; [3]): 82%
remaining binding at 0.3 µM (KIT(V559D,T670I); [3]): 98%
remaining binding at 0.3 µM (JNK1; [3]): 83%
remaining binding at 0.3 µM (ERN1; [3]): 87%
remaining binding at 0.3 µM (YANK2; [3]): 87%

C=CC(=O)N1CCC([C@@H]2CCNc3c(C(N)=O)c(-c4ccc(Oc5ccccc5)cc4)nn32)CC1 [Zanubrutinib]
remaining binding at 0.3 µM (SYK; [4]): 81%
remaining binding at 0.3 µM (IRAK1; [4]): 100%
remaining binding at 0.3 µM (NEK2; [4]): 90%
remaining binding at 0.3 µM (CSNK1A1L; [4]): 83%
remaining binding at 0.3 µM (SLK; [4]): 99%
remaining binding at 0.3 µM (LZK; [4]): 93%
remaining binding at 0.3 µM (KIT(V559D,T670I); [4]): 62%
remaining binding at 0.3 µM (JNK1; [4]): 100%
remaining binding at 0.3 µM (ERN1; [4]): 100%
remaining binding at 0.3 µM (YANK2; [4]): 96%
